Tests used:
S. typhimurium WT [1] = assay: Combined antimicrobial study between antibiotics and SMs; type: cell-based, Salmonella enterica subsp. enterica serovar Typhimurium LT2; details: for MBCAlone (MBC of the antibiotic by itself, no SM): S. typhimurium WT, adjusted M9 minimal broth; for MBCComb4 (MBC of antibiotic in antibiotic+SM4 combination) / SM4R (result of synergy testing, antibiotic+SM4): [SM4] 10 μM; for MBCComb5 (MBC of antibiotic in antibiotic+SM5 combination) / SM5R (result of synergy testing, antibiotic+SM5): [SM5] 25 μM; for effect of the presence of SM on antibiotic MBC: combined with SM1, SM3, SM4 or SM5; for reduction in MBC when combined with SM1: antibiotic combined with SM1
Procedure: Combined antimicrobial study between antibiotics and small molecules (SMs): The antimicrobial efficacy of several antibiotics commonly used to control Salmonella was studied once combined with the selected four SMs. […] The MBC of each antibiotic were pre-determined as described previously. Bacteria challenged with only SMs or antibiotics at the same concentrations were used to determine the ATB-SM combination effects. […] Plates were incubated in a Sunrise™ Tecan kinetic microplate reader for 12 hrs at 37° C. and the optical density (OD) was measure at 600 nm as described above. After challenging, survival was recorded following plating of the bacterial suspension on agar plate and incubated at 37° C. for 36 hrs. The ATB-SM combination effect was calculated as described in Doern CD, 2014 (12).

S. typhimurium WT [2] = assay: High-throughput primary screen for S. typhimurium growth inhibitors at 200 μM; type: cell-based, Salmonella enterica subsp. enterica serovar Typhimurium LT2; details: adjusted M9 minimal broth, 12 hrs, 37° C., bactericidal = 100% growth inhibition and no growth on XLT4 agar, bacteriostatic = 100% growth inhibition but growth on XLT4 agar
Procedure: Identification of S. typhimurium growth inhibitors: The 4182 small molecules (SMs) were screened at 200 μM against S. typhimurium WT using HTS assay in a 96-well plate format. An overnight Salmonella suspension was normalized at 0.05 OD600 (approximately 3.5×10^7 CFU/ml) with an adjusted M9 minimal broth medium (12.7 mM Na2HPO4 7H2O; 22 mM KH2PO4; 18.7 mM NH4Cl; 2 mM MgSO4; 0.1 mM CaCl2; 0.4% glucose; 0.05% casamino acids). 100 μL of the suspension plus 2 μl of SMs (200 μM) were transferred into each well of a sterile, non-treated, flat bottom 96-well plate. Bacteria alone (negative control, NC), 2% DMSO plus bacteria (DMSO control), 20 μg/ml chloramphenicol or 50 μg/ml kanamycin plus bacteria (positive controls, PC), and M9 medium only were used as control. Plates were incubated in a Sunrise™ Tecan kinetic microplate reader for 12 hrs at 37° C. and the optical density (OD) was measure at 600 nm as described above. Percentage of inhibition=[…]. SMs were identified as growth inhibitors if their inhibition value after incubation was above 20% (value representing the inhibition level monitored with the DMSO controls). Cultures from wells showing no turbidimetric increase were transferred onto a XLT4 agar plate. Plates were incubated at 37° C. for 36 hrs.

CO/N=C(\C(=O)N[C@@H]1C(=O)N2C(C(=O)O)=C(COC(C)=O)CS[C@H]12)c1csc(N)n1 [Cefotaxime, cefotaxime]
MBCAlone (MBC of the antibiotic by itself, no SM) (S. typhimurium WT [1]): 3.2 µg/mL
MBCComb1 (MBC of antibiotic in antibiotic+SM1 combination) (S. typhimurium WT [1]; [SM1] 50 μM): 3.2 µg/mL
SM1R (result of synergy testing, antibiotic+SM1) (S. typhimurium WT [1]; [SM1] 50 μM): Ind
MBCComb3 (MBC of antibiotic in antibiotic+SM3 combination) (S. typhimurium WT [1]; [SM3] 25 μM): 3.2 µg/mL
SM3R (result of synergy testing, antibiotic+SM3) (S. typhimurium WT [1]; [SM3] 25 μM): Ind
MBCComb4 (MBC of antibiotic in antibiotic+SM4 combination) (S. typhimurium WT [1]): 3.2 µg/mL
SM4R (result of synergy testing, antibiotic+SM4) (S. typhimurium WT [1]): Ind
MBCComb5 (MBC of antibiotic in antibiotic+SM5 combination) (S. typhimurium WT [1]): 3.2 µg/mL
SM5R (result of synergy testing, antibiotic+SM5) (S. typhimurium WT [1]): Ind
effect of the presence of SM on antibiotic MBC (S. typhimurium WT [1]): no effect

CC[C@H]1OC(=O)[C@H](C)[C@@H](O[C@H]2C[C@@](C)(OC)[C@@H](O)[C@H](C)O2)[C@H](C)[C@@H](O[C@@H]2O[C@H](C)C[C@H](N(C)C)[C@H]2O)[C@](C)(O)C[C@@H](C)C(=O)[C@H](C)[C@@H](O)[C@]1(C)O [Erythromycin, erythromycin]
MBCAlone (MBC of the antibiotic by itself, no SM) (S. typhimurium WT [1]): 200 µg/mL
MBCComb1 (MBC of antibiotic in antibiotic+SM1 combination) (S. typhimurium WT [1]; [SM1] 50 μM): 200 µg/mL
SM1R (result of synergy testing, antibiotic+SM1) (S. typhimurium WT [1]; [SM1] 50 μM): Ind
MBCComb3 (MBC of antibiotic in antibiotic+SM3 combination) (S. typhimurium WT [1]; [SM3] 25 μM): 200 µg/mL
SM3R (result of synergy testing, antibiotic+SM3) (S. typhimurium WT [1]; [SM3] 25 μM): Ind
MBCComb4 (MBC of antibiotic in antibiotic+SM4 combination) (S. typhimurium WT [1]): 200 µg/mL
SM4R (result of synergy testing, antibiotic+SM4) (S. typhimurium WT [1]): Ind
MBCComb5 (MBC of antibiotic in antibiotic+SM5 combination) (S. typhimurium WT [1]): 200 µg/mL
SM5R (result of synergy testing, antibiotic+SM5) (S. typhimurium WT [1]): Ind
effect of the presence of SM on antibiotic MBC (S. typhimurium WT [1]): no effect

C[C@@H](O)[C@H]1C(=O)N2C(C(=O)O)=C(S[C@@H]3CN[C@H](C(=O)N(C)C)C3)[C@H](C)[C@H]12 [Meropenem, meropenem]
MBCAlone (MBC of the antibiotic by itself, no SM) (S. typhimurium WT [1]): 0.2 µg/mL
MBCComb1 (MBC of antibiotic in antibiotic+SM1 combination) (S. typhimurium WT [1]; [SM1] 5 μM): 0.16 µg/mL
SM1R (result of synergy testing, antibiotic+SM1) (S. typhimurium WT [1]; [SM1] 5 μM): Add
MBCComb1 (MBC of antibiotic in antibiotic+SM1 combination) (S. typhimurium WT [1]; [SM1] 10 μM): 0.08 µg/mL
SM1R (result of synergy testing, antibiotic+SM1) (S. typhimurium WT [1]; [SM1] 10 μM): Add
MBCComb1 (MBC of antibiotic in antibiotic+SM1 combination) (S. typhimurium WT [1]; [SM1] 20 μM): 0.04 µg/mL
SM1R (result of synergy testing, antibiotic+SM1) (S. typhimurium WT [1]; [SM1] 20 μM): Add
MBCComb3 (MBC of antibiotic in antibiotic+SM3 combination) (S. typhimurium WT [1]; [SM3] 15 μM): 0.16 µg/mL
SM3R (result of synergy testing, antibiotic+SM3) (S. typhimurium WT [1]; [SM3] 15 μM): Ind
MBCComb3 (MBC of antibiotic in antibiotic+SM3 combination) (S. typhimurium WT [1]; [SM3] 20 μM): 0.08 µg/mL
SM3R (result of synergy testing, antibiotic+SM3) (S. typhimurium WT [1]; [SM3] 20 μM): Ind
MBCComb4 (MBC of antibiotic in antibiotic+SM4 combination) (S. typhimurium WT [1]): 0.2 µg/mL
SM4R (result of synergy testing, antibiotic+SM4) (S. typhimurium WT [1]): Ind
MBCComb5 (MBC of antibiotic in antibiotic+SM5 combination) (S. typhimurium WT [1]): 0.2 µg/mL
SM5R (result of synergy testing, antibiotic+SM5) (S. typhimurium WT [1]): Ind
reduction in MBC when combined with SM1 (S. typhimurium WT [1]): up to 80%

CCn1cc(C(=O)O)c(=O)c2ccc(C)nc21 [Nalidixic Acid, nalidixic acid]
MBCAlone (MBC of the antibiotic by itself, no SM) (S. typhimurium WT [1]): 16 µg/mL
MBCComb1 (MBC of antibiotic in antibiotic+SM1 combination) (S. typhimurium WT [1]; [SM1] 30 μM): 8 µg/mL
SM1R (result of synergy testing, antibiotic+SM1) (S. typhimurium WT [1]; [SM1] 30 μM): Ind
MBCComb1 (MBC of antibiotic in antibiotic+SM1 combination) (S. typhimurium WT [1]; [SM1] 40 μM): 4.8 µg/mL
SM1R (result of synergy testing, antibiotic+SM1) (S. typhimurium WT [1]; [SM1] 40 μM): Ind
MBCComb3 (MBC of antibiotic in antibiotic+SM3 combination) (S. typhimurium WT [1]; [SM3] 25 μM): 16 µg/mL
SM3R (result of synergy testing, antibiotic+SM3) (S. typhimurium WT [1]; [SM3] 25 μM): Ind
MBCComb4 (MBC of antibiotic in antibiotic+SM4 combination) (S. typhimurium WT [1]): 16 µg/mL
SM4R (result of synergy testing, antibiotic+SM4) (S. typhimurium WT [1]): Ind
MBCComb5 (MBC of antibiotic in antibiotic+SM5 combination) (S. typhimurium WT [1]): 16 µg/mL
SM5R (result of synergy testing, antibiotic+SM5) (S. typhimurium WT [1]): Ind
reduction in MBC when combined with SM1 (S. typhimurium WT [1]): up to 70%

CN(Cc1ccccc1)CC(O)COc1ccc(CNCc2ccc(Cl)s2)cc1 (stereo not shown) [SM6, 1-[benzyl(methyl)amino]-3-[4-({[(5-chloro-2-thienyl)methyl]amino}methyl)phenoxy]-2-propanol]
Effect on S. Typhimurium at 200 μM (S. typhimurium WT [2]): Bactericidal

O=[N+]([O-])c1ccc(F)c(N=Cc2cc(Cl)cc(Cl)c2O)c1 [SM7, 2,4-dichloro-6-{[(2-fluoro-5-nitrophenyl)imino]methyl}phenol]
Effect on S. Typhimurium at 200 μM (S. typhimurium WT [2]): Bactericidal

COc1cccc(N=Cc2cc(Cl)cc(Cl)c2O)c1 [SM8, 2,4-dichloro-6-{[(3-methoxyphenyl)imino]methyl}phenol]
Effect on S. Typhimurium at 200 μM (S. typhimurium WT [2]): Bactericidal

CC(C)Cc1ccc(CN2CCCC(NC(=O)CN3CCCN(C)CC3)C2)cc1 (stereo not shown) [SM9, N-[1-(4-isobutylbenzyl)-3-piperidinyl]-2-(4-methyl-1,4-diazepan-1-yl)acetamide]
Effect on S. Typhimurium at 200 μM (S. typhimurium WT [2]): Bactericidal

CCOC(=O)c1c(N)sc(C(C)=O)c1C [SM10, ethyl 5-acetyl-2-amino-4-methyl-3-thiophenecarboxylate]
Effect on S. Typhimurium at 200 μM (S. typhimurium WT [2]): Bacteriostatic

COc1cccc(C2(c3ccc(O)cc3)CCCC2)c1 [SM11, 4-[1-(3-methoxyphenyl)cyclopentyl]phenol]
Effect on S. Typhimurium at 200 μM (S. typhimurium WT [2]): Bacteriostatic

O=C(O)c1cc(NN=Nc2ccc(Br)cc2)cc([N+](=O)[O-])c1 [SM12, 3-[3-(4-bromophenyl)-2-triazen-1-yl]-5-nitrobenzoic acid]
Effect on S. Typhimurium at 200 μM (S. typhimurium WT [2]): Bacteriostatic

Clc1ccc(CCNC2CCN(Cc3ccccc3)CC2)c(Cl)c1 [SM13, 1-benzyl-N-[2-(2,4-dichlorophenyl)ethyl]-4-piperidinamine]
Effect on S. Typhimurium at 200 μM (S. typhimurium WT [2]): Bacteriostatic

COc1ccc(CNCc2ccc(C)cc2)cc1OCC(O)CN1CCCCCCC1 (stereo not shown) [SM15, 1-(1-azocanyl)-3-(2-methoxy-5-{[(4-methylbenzyl)amino]methyl}phenoxy)-2-propanol]
Effect on S. Typhimurium at 200 μM (S. typhimurium WT [2]): Bacteriostatic

COc1cccc(N=Cc2cc(Br)ccc2O)c1 [SM16, 4-bromo-2-{[(3-methoxyphenyl)imino]methyl}phenol]
Effect on S. Typhimurium at 200 μM (S. typhimurium WT [2]): Bacteriostatic

CN1C(=O)NC(=O)C(=Cc2ccc([N+](=O)[O-])o2)C1=O [SM17, 1-methyl-5-[(5-nitro-2-furyl)methylene]-2,4,6(1H,3H,5H)-pyrimidinetrione]
Effect on S. Typhimurium at 200 μM (S. typhimurium WT [2]): Bacteriostatic

CC1=NN(c2ccccc2)C(=O)C1C(=O)c1ccccc1 (stereo not shown) [SM18, 4-benzoyl-5-methyl-2-phenyl-2,4-dihydro-3H-pyrazol-3-one]
Effect on S. Typhimurium at 200 μM (S. typhimurium WT [2]): Bacteriostatic

C(=Cc1ccccc1)CN1CCN(C2c3ccccc3-c3ccccc32)CC1 [SM19, 1-(9H-fluoren-9-yl)-4-(3-phenyl-2-propen-1-yl)piperazine]
Effect on S. Typhimurium at 200 μM (S. typhimurium WT [2]): Bacteriostatic

— patent US12161630B2, “Methods to control infection using new generation small molecule growth inhibitors” (priority 2017, dated 2024)
